Laboratory results: publication PMC11079024, “Identification of a family of species-selective complex I inhibitors as potential anthelmintics” (Nature Communications, 2024)
Like-named read-outs stand apart in the source and are kept apart here.

Key:
H. polygyrus = settings: cited from earlier work
adult H. polygyrus = experiment: microbe, parasite or virus in culture; assay type: cell-based, Heligmosomoides polygyrus
Protocol: To investigate the impact of the eleven benzimidazole derivatives under anaerobic conditions, an anaerobic chamber with an integrated incubator (Coy Laboratory Products, USA) was used. The same procedure was followed as described for the aerobic drug screening in adult H. polygyrus, but the incubation took place within the anaerobic chamber (37 °C, 85% N2, 10% CO2, 5% H2). Benzimidazole derivatives were tested at a concentration of 10 µM. For scoring, the plates had to be removed from the anaerobic chamber. The whole experiment was performed two times i.e., two independent biological replicates.
The activities of eleven benzimidazole derivatives were tested against adult H. polygyrus viability in vitro under aerobic (+, white boxplots) and anaerobic (–, coloured boxplots) conditions (see Methods). After 24-hour chemical treatment, worm viability was manually scored by an examiner using a scale from 0 (dead) to 3 (motile); DMSO was used as a negative control in both aerobic and anaerobic conditions; levamisole was used as a positive control in anaerobic conditions. The percentage of affected worms (i.e., worms with a score equal to or lower than 1.5) in each biological replicate is shown; data are from two biological replicates. Within each boxplot, black horizontal lines denote group medians, boxes span from the 25th to the 75th percentile of each group’s distribution, and whiskers extend to the maximum and minimum values. […]

C. elegans = C. elegans chemical screens of RIKEN NPD libraries at 50 μM (hit identification in KCN survival and development/viability assays); assay type: cell-based, Caenorhabditis elegans; settings: screened at 50 μM in triplicate; hit = modified z-score < −3; KCN = KCN survival assay, Dev. & Viability = development/viability assay
HEK293 cells = settings: human, 2 days, 6.3 µM
in vitro = settings: human
L1 wild-type C. elegans = experiment: whole plant or invertebrate; settings: Caenorhabditis elegans, 15 h, read-out: C. elegans KCN Survival Assay LC50

Q: With `CO/N=C1\C[C@]2(C[C@@H]3C[C@@H](C/C=C(\C)C[C@@H](C)/C=C/C=C4\CO[C@@H]5[C@H](O)C(C)=C[C@@H](C(=O)O3)[C@]45O)O2)O[C@H](/C(C)=C/C(C)C)[C@H]1C` [moxidectin] as the compound, how does the “reduction in H. polygyrus worm burden” value (H. polygyrus; single dose 1 mg/kg, mice) read?
A: 99%

Q: What does the source list for `c1ccc([C@H]2CN3CCSC3=N2)cc1` [levamisole, reference compound]?
A: # of Worms Affected (adult H. polygyrus): 12; killing at 10 µM (adult H. polygyrus; Heligmosomoides polygyrus, 24 h, read-out: Percent Worms Affected): 100%; reduction in H. polygyrus worm burden (H. polygyrus; mouse, in vivo, 1.25 mg/kg): 62%

Q: With `Fc1ccc(C(c2ccc(F)cc2)N2CCN(C/C=C/c3ccccc3)CC2)cc1` [Flunarizine] as the compound, how does the “Hit Type” value (C. elegans) read?
A: KCN

Q: And the HEK293 viability (HEK293 cells)?
A: 1.000

Q: What about the CC50 at 2 days (in vitro; HEK293 Cell Viability Assay LC50) of the same compound?
A: 30.2 µM

Q: What about the viability (in vitro; HEK293 viability) of the same compound?
A: 92.6%

Q: And the viability at 2 days, 0.4 µM (in vitro; HEK293 viability)?
A: 88.1%

Q: What about the viability at 2 days, 0.8 µM (in vitro; HEK293 viability) of the same compound?
A: 81.5%

Q: What about the viability at 2 days, 6.3 µM (in vitro; HEK293 viability) of the same compound?
A: 100%

Q: And the viability at 2 days, 12.5 µM (in vitro; HEK293 viability)?
A: 99.4%

Q: And the viability at 2 days, 50 µM (in vitro; HEK293 viability)?
A: 17.1%

Q: What about the LC50 (L1 wild-type C. elegans) of the same compound?
A: 22 µM
